Measurements taken from ChEMBL document CHEMBL1158706, “Hemiterpene glucosides with anti-platelet aggregation activities from Ilex pubescens” (2005).

Organism: Rattus norvegicus
Experiment: Antiplatelet activity in Sprague-Dawley rat plasma assessed as shear induced platelet aggregation at 10 uM
Assay type: functional

Structure (SMILES)	Activity
CC(=O)Oc1ccccc1C(=O)O [ASPIRIN]	44.7%
C=C(CO)C(CO[C@@H]1O[C@H](CO)[C@@H](O)[C@H](O)[C@H]1O)OC(=O)/C=C/c1ccc(O)c(O)c1 (stereo partly drawn) [PUBESCENOSIDE B]	27.3%
C=C(COC(=O)/C=C/c1ccc(O)c(O)c1)C(O)CO[C@@H]1O[C@H](CO)[C@@H](O)[C@H](O)[C@H]1O (stereo partly drawn) [PUBESCENOSIDE A]	36.55%
